Literature values in article PMC5427923, “A novel CCR2 antagonist inhibits atherogenesis in apoE deficient mice by achieving high receptor occupancy” (Scientific Reports, 2017).

Experiments:
[1] = test system: apoE−/− mice; parameters: method as in Aiello et al. [11]; details: ref Aiello et al. [11], cited from earlier work
[2] = test system: CCR2; parameters: method as in PMID 16210643; details: single oral dose of 50 mg/kg, mice; ref [35]; cited from earlier work
[3] = test system: hCCR2b; details: hCCR2; ref Vilums et al. [24]; cited from earlier work

Compound | size of early and advanced atherosclerotic lesions ([1]; apoE−/− mice) | inflammatory monocyte levels ([1]; up to 6 hours after oral infusion, lost at 9 hours) | CCR2 inhibition [2] | RT [3] [min]
CCO[C@H]1CN(C2CCC(O)(c3ccc4c(c3)OCO4)CC2)C[C@@H]1NC(=O)CNC(=O)c1cccc(C(F)(F)F)c1 (mixture of isomers) [INCB3344] | failed to decrease | significantly reduced | approximately 75% | 
CO[C@@H]1COCC[C@@H]1N[C@@H]1CC[C@@](C(=O)N2CCc3ncc(C(F)(F)F)cc3C2)(C(C)C)C1 [MK-0812, reference compound] |  |  |  | 92
